# Laboratory results as given in ChEMBL document CHEMBL1127307, “Structural evolution and pharmacology of a novel series of triacid angiotensin II receptor antagonists” (J Med Chem, 1994).
# Active and inactive are the calls of the source. No cut-off for these calls is given here.
# Molecular target: T1, Type-1 angiotensin II receptor (Oryctolagus cuniculus) (UniProt P34976)
# T1 sequence (whole entry): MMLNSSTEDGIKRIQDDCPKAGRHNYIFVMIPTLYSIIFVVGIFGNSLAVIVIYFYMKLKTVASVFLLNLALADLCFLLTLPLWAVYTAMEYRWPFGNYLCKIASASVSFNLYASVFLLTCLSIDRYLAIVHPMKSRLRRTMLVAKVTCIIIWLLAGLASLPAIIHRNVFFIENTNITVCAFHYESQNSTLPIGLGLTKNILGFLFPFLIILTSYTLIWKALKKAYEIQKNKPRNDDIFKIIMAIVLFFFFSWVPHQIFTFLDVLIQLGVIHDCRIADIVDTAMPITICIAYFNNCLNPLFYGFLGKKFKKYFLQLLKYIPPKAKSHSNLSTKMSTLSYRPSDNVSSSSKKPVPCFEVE
# Assay: In vitro antagonistic activity against Ang II (AT1) receptor was determined in rabbit aorta
# Assay type: functional, tissue-based
row,Kb [nM],SMILES
1,0.9,CCCCCC[C@H](C(=O)N1C[C@@H](Oc2ccc(CP(=O)(O)O)cc2)C[C@H]1C(=O)O)n1cnc(NC(=O)c2ccccc2S(=O)(=O)O)c1
2,3,CCCCCC[C@H](C(=O)N1C[C@@H](Oc2ccc(F)cc2)C[C@H]1C(=O)O)n1cnc(NC(=O)c2ccccc2S(=O)(=O)O)c1
3,34.7,CCCCCC[C@H](C(=O)N1C[C@@H](Oc2ccc(C(F)(F)F)cc2)C[C@H]1C(=O)O)n1cnc(NC(=O)c2ccccc2S(=O)(=O)O)c1
4,0.6,CCCCCC[C@H](C(=O)N1C[C@@H](Oc2ccc(CCC(=O)O)cc2)C[C@H]1C(=O)O)n1cnc(NC(=O)c2ccccc2S(=O)(=O)O)c1
5,0.8,CCCCCC[C@H](C(=O)N1C[C@@H](Oc2ccccc2)C[C@H]1C(=O)O)n1cnc(NC(=O)c2ccccc2S(=O)(=O)O)c1
6,0.4,CCCCCC[C@H](C(=O)N1C[C@@H](Oc2ccc(CCP(=O)(O)O)cc2)C[C@H]1C(=O)O)n1cnc(NC(=O)c2ccccc2S(=O)(=O)O)c1
7,4.1,CCCCCC[C@H](C(=O)N1C[C@@H](Oc2ccc(OC(C)C)cc2)C[C@H]1C(=O)O)n1cnc(NC(=O)c2ccccc2S(=O)(=O)O)c1
8,0.44,CCCCCC[C@H](C(=O)N1C[C@@H](Oc2ccc(OC)cc2)C[C@H]1C(=O)O)n1cnc(NC(=O)c2ccccc2S(=O)(=O)O)c1
9,0.27,CCCCCC[C@H](C(=O)N1C[C@@H](Oc2ccc(CC(=O)O)cc2)C[C@H]1C(=O)O)n1cnc(NC(=O)c2ccccc2S(=O)(=O)O)c1
10,1.1,CCCCCC[C@H](C(=O)N1C[C@@H](Oc2ccc(C(=O)O)cc2)C[C@H]1C(=O)O)n1cnc(NC(=O)c2ccccc2S(=O)(=O)O)c1
11,0.6,CCCCCC[C@H](C(=O)N1C[C@@H](Oc2ccc(C(C)(C)C(=O)O)cc2)C[C@H]1C(=O)O)n1cnc(NC(=O)c2ccccc2S(=O)(=O)O)c1
12,25.1,CCCCCC[C@H](C(=O)N1C[C@@H](Oc2ccc(C(C)C)cc2)C[C@H]1C(=O)O)n1cnc(NC(=O)c2ccccc2S(=O)(=O)O)c1
13,0.63,CCCCCC[C@H](C(=O)N1C[C@@H](Oc2ccc3occc3c2)C[C@H]1C(=O)O)n1cnc(NC(=O)c2ccccc2S(=O)(=O)O)c1
14,5.2,CCCCCC[C@H](C(=O)N1C[C@@H](Oc2ccc(OC(C)(C)C)cc2)C[C@H]1C(=O)O)n1cnc(NC(=O)c2ccccc2S(=O)(=O)O)c1
15,126,CCCCCC[C@H](C(=O)N1C[C@@H](Oc2ccc(C(C)(C)C)cc2)C[C@H]1C(=O)O)n1cnc(NC(=O)c2ccccc2S(=O)(=O)O)c1
16,1.09,CCCCCC[C@H](C(=O)N1C[C@@H](Oc2ccc(C)cc2)C[C@H]1C(=O)O)n1cnc(NC(=O)c2ccccc2S(=O)(=O)O)c1
17,3.2,CCCCCC[C@@H](C(=O)N1C[C@@H](Oc2ccccc2)C[C@H]1C(=O)O)n1cnc(NC(=O)c2ccccc2S(=O)(=O)O)c1

# More lines, now with the values behind:
row,SMILES,Kb [nM]
1,CCCCCC[C@H](C(=O)N1C[C@@H](Oc2ccccc2CC(=O)O)C[C@H]1C(=O)O)n1cnc(NC(=O)c2ccccc2S(=O)(=O)O)c1,501
2,CCCCCCC(C(=O)O)n1cnc(NC(=O)c2ccccc2)c1 (centres undefined),12500
3,CCCCCCC(C(=O)O)n1cnc(NC(=O)c2ccccc2-c2nn[nH]n2)c1 (centres undefined),159
4,CCCCCC[C@H](C(=O)N1C[C@@H](Oc2ccc(OC)c(OC)c2)C[C@H]1C(=O)O)n1cnc(NC(=O)c2ccccc2S(=O)(=O)O)c1,15.8
5,CCCCCC[C@H](C(=O)N1C[C@@H](Oc2ccc(CC3N=NN=N3)cc2)C[C@H]1C(=O)O)n1cnc(NC(=O)c2ccccc2S(=O)(=O)O)c1,0.6
6,CCCCCC[C@H](C(=O)N1C[C@@H](Oc2cccc(CC(=O)O)c2)C[C@H]1C(=O)O)n1cnc(NC(=O)c2ccccc2S(=O)(=O)O)c1,15.8
7,CCCCCC[C@H](C(=O)N1CCC[C@H]1C(=O)O)n1cnc(NC(=O)c2ccccc2S(=O)(=O)O)c1,50.9
8,CCCCCCC(C(=O)O)n1cnc(NC(=O)c2cccc(O)c2C(=O)O)c1 (centres undefined),124
9,CCCCCC[C@H](C(=O)N1C[C@@H](O)C[C@H]1C(=O)O)n1cnc(NC(=O)c2ccccc2S(=O)(=O)O)c1,25.8
10,CCCCCC[C@H](C(=O)N1C[C@@H](Oc2ccc(-c3ccccc3)cc2)C[C@H]1C(=O)O)n1cnc(NC(=O)c2ccccc2S(=O)(=O)O)c1,10
11,CCCCC(C(=O)O)n1cnc(C(=O)Nc2ccccc2)c1 (centres undefined),71.5
12,CCCCCCC(C(=O)O)n1cnc(NC(=O)c2ccccc2C(=O)O)c1 (centres undefined),684
13,CCCCCCC(C(=O)O)n1cnc(NC(=O)c2ccccc2S(=O)(=O)O)c1 (centres undefined),81.7
14,CCCCCC[C@H](C(=O)N1C[C@@H](Oc2cccc3cnccc23)C[C@H]1C(=O)O)n1cnc(NC(=O)c2ccccc2S(=O)(=O)O)c1,3.3
15,CCCCCC[C@@H](C(=O)N1CCC[C@H]1C(=O)O)n1cnc(NC(=O)c2ccccc2S(=O)(=O)O)c1,461
16,CCCCCC[C@H](C(=O)N1C[C@@H](Oc2cccnc2)C[C@H]1C(=O)O)n1cnc(NC(=O)c2ccccc2S(=O)(=O)O)c1,148
17,CCCCCC[C@H](C(=O)N1C[C@@H](Oc2ccno2)C[C@H]1C(=O)O)n1cnc(NC(=O)c2ccccc2S(=O)(=O)O)c1,94.6
18,CCCCCC[C@H](C(=O)N1C[C@@H](Oc2ccc3sccc3c2)C[C@H]1C(=O)O)n1cnc(NC(=O)c2ccccc2S(=O)(=O)O)c1,3.6
19,CCCCCC[C@H](C(=O)N1C[C@@H](Oc2ccccc2OC)C[C@H]1C(=O)O)n1cnc(NC(=O)c2ccccc2S(=O)(=O)O)c1,> 30
20,CCCCCC[C@H](C(=O)N1C[C@@H](Oc2ccc3ccccc3c2)C[C@H]1C(=O)O)n1cnc(NC(=O)c2ccccc2S(=O)(=O)O)c1,4.1
21,CCCCCC[C@H](C(=O)N1C[C@@H](Oc2ccc3c(c2)OCO3)C[C@H]1C(=O)O)n1cnc(NC(=O)c2ccccc2S(=O)(=O)O)c1,0.92
22,CCCCCC[C@H](C(=O)N1C[C@@H](Oc2cccc3ccccc23)C[C@H]1C(=O)O)n1cnc(NC(=O)c2ccccc2S(=O)(=O)O)c1,4040
23,CCCCCC[C@H](C(=O)N1C[C@@H](Oc2cccc(OC)c2)C[C@H]1C(=O)O)n1cnc(NC(=O)c2ccccc2S(=O)(=O)O)c1,11.6

# Molecular target: T2, Type-1 angiotensin II receptor B (Rattus norvegicus) (UniProt P29089)
# T2 sequence (whole entry): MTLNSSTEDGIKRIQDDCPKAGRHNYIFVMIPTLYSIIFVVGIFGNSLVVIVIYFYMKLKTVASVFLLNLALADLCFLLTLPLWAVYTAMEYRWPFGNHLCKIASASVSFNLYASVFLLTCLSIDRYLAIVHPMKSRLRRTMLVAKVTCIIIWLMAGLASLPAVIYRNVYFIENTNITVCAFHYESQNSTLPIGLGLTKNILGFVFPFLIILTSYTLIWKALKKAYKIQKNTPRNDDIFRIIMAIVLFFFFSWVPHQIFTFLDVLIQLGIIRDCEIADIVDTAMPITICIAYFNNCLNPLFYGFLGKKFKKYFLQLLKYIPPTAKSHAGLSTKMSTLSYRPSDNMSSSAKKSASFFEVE
# Assay: In vivo pressor response to Ang II (AT1) receptor in pithed rats at an oral dose of 10 mg/kg; Not active
# Assay type: functional, organism-based
# Design: dose 10 mg/kg
row,Kb,SMILES
1,inactive,CCCCCC[C@H](C(=O)N1C[C@@H](Oc2ccc(CCC(=O)O)cc2)C[C@H]1C(=O)O)n1cnc(NC(=O)c2ccccc2S(=O)(=O)O)c1
2,inactive,CCCCCC[C@H](C(=O)N1C[C@@H](Oc2ccc(C(=O)O)cc2)C[C@H]1C(=O)O)n1cnc(NC(=O)c2ccccc2S(=O)(=O)O)c1

# Further lines, the compound ahead of its results:
row,SMILES,Kb
1,CCCCCC[C@H](C(=O)N1C[C@@H](Oc2ccccc2CC(=O)O)C[C@H]1C(=O)O)n1cnc(NC(=O)c2ccccc2S(=O)(=O)O)c1,inactive
2,CCCCCC[C@H](C(=O)N1C[C@@H](Oc2ccc(CC3N=NN=N3)cc2)C[C@H]1C(=O)O)n1cnc(NC(=O)c2ccccc2S(=O)(=O)O)c1,inactive

# Molecular target: T2, Type-1 angiotensin II receptor B (Rattus norvegicus)
# Assay: In vivo pressor response to Ang II (AT1) receptor in pithed rats at an oral dose of 10 mg/kg
# Assay type: functional, organism-based
# Design: dose 10 mg/kg
row,Kb [mg/kg],SMILES
1,1.8,CCCCCC[C@H](C(=O)N1C[C@@H](Oc2ccc(CP(=O)(O)O)cc2)C[C@H]1C(=O)O)n1cnc(NC(=O)c2ccccc2S(=O)(=O)O)c1
2,10.6,CCCCCC[C@H](C(=O)N1C[C@@H](Oc2cccc(CC(=O)O)c2)C[C@H]1C(=O)O)n1cnc(NC(=O)c2ccccc2S(=O)(=O)O)c1
3,8.3,CCCCCC[C@H](C(=O)N1C[C@@H](Oc2ccc(CCP(=O)(O)O)cc2)C[C@H]1C(=O)O)n1cnc(NC(=O)c2ccccc2S(=O)(=O)O)c1
4,2.8,CCCCCC[C@H](C(=O)N1C[C@@H](Oc2ccc(CC(=O)O)cc2)C[C@H]1C(=O)O)n1cnc(NC(=O)c2ccccc2S(=O)(=O)O)c1
5,6.5,CCCCCC[C@H](C(=O)N1C[C@@H](Oc2ccc(C(C)(C)C(=O)O)cc2)C[C@H]1C(=O)O)n1cnc(NC(=O)c2ccccc2S(=O)(=O)O)c1
